Results from paper PMC4983413, “Intracellular accumulation of Praziquantel in T lymphoblastoid cell lines, CEM (parental) and CEMVBL(P-gp-overexpressing)” (BMC Pharmacology & Toxicology, 2016).
Where “and” joins values, the source holds several entries; their conditions need not be identical. Identical values can stand only once. Entries after “also recorded” stand apart in the source; their conditions may differ.

What was measured:
[1] = system: CEM (parental) T-lymphoblastoid cells; test: Intracellular accumulation (substrate study) in CEM parental cells; assay type: in vitro ADME; settings: 10 μg/ml drug, 30 min, 37 °C
Description: The parental cell line was CEM (T-lymphoblastoid cell line) was used as the parental cell line. CEMVBL cells that have increased expression of P-gp were selected under vinblastine. The selection of drug resistant cells was carried out by using increasing concentrations of vinblastine up to 100 ng/mL. CEM and CEMVBL Cells were cultured in 175 cm^2 flasks containing DMEM supplemented with 15 % FBS at 37 °C in a humidified 5 % CO2 gassed incubator, conditions which led to doubling after approximately every 24 h.
The cell samples were centrifuged (2000 × g for 5 min at 4 °C) and the supernatant fraction discarded. […] The cells were then incubated at 37 °C for 30 min in a shaking water bath. The resulting cell suspensions were then centrifuged (2000 × g for 5 min at 4 °C). 100 μl samples of the supernatant fraction were then removed, and the aliquots used to determine the extracellular (EXT) concentration. The excess supernatant fraction was then discarded and the resulting cell pellet washed three times in 10 ml HBSS and centrifuged (2000 × g for 5 min). […] The samples were then assayed by HPLC, and the data expressed as cellular accumulation ratio (CAR), the ratio of the intracellular to the extracellular accumulation calculated by the formula, CAR = (INT/EXT) × 10 [intracellular concentrations were calculated using the volume of a single CEM and CEMVBL cell to be 1 picolitre (pl)] […]

[2] = system: CEMVBL cells which overexpress P-gp; test: Intracellular accumulation (substrate study) in CEMVBL cells; assay type: in vitro ADME
Description: The parental cell line was CEM (T-lymphoblastoid cell line) was used as the parental cell line. CEMVBL cells that have increased expression of P-gp were selected under vinblastine. The selection of drug resistant cells was carried out by using increasing concentrations of vinblastine up to 100 ng/mL.
(§1) The cell samples were centrifuged (2000 × g for 5 min at 4 °C) and the supernatant fraction discarded. […] The cells were then incubated at 37 °C for 30 min in a shaking water bath. The resulting cell suspensions were then centrifuged (2000 × g for 5 min at 4 °C). 100 μl samples of the supernatant fraction were then removed, and the aliquots used to determine the extracellular (EXT) concentration. The excess supernatant fraction was then discarded and the resulting cell pellet washed three times in 10 ml HBSS and centrifuged (2000 × g for 5 min). The resulting pellets were solubilized by reconstituting in 100 μl of distilled water and used to determine intracellular (INT) concentrations as described in a method previously validated in our laboratory. The experiment was carried out in quadruplicate. The samples were then assayed by HPLC, and the data expressed as cellular accumulation ratio (CAR), the ratio of the intracellular to the extracellular accumulation calculated by the formula, CAR = (INT/EXT) × 10 [intracellular concentrations were calculated using the volume of a single CEM and CEMVBL cell to be 1 picolitre (pl)] [15, 30].

[3] = system: CEM (parental) T-lymphoblastoid cells; test: Effect of PZQ and tariquidar on intracellular accumulation of SQV in CEM cells (inhibition study); assay type: cell-based
Description: as §1

P-gp (CEMVBL cells) = target: T1, P-gp (CEMVBL cells) (Homo sapiens, UniProt P08183); test: Effect of PZQ and tariquidar on intracellular accumulation of SQV in CEMVBL cells (inhibition study); assay type: cell-based
T1 construct: CEMVBL cells that have increased expression of P-gp were selected under vinblastine; endogenous in cells; host or cells: CEMVBL (vinblastine-selected CEM T-lymphoblastoid cells)
T1 sequence (P08183 whole entry): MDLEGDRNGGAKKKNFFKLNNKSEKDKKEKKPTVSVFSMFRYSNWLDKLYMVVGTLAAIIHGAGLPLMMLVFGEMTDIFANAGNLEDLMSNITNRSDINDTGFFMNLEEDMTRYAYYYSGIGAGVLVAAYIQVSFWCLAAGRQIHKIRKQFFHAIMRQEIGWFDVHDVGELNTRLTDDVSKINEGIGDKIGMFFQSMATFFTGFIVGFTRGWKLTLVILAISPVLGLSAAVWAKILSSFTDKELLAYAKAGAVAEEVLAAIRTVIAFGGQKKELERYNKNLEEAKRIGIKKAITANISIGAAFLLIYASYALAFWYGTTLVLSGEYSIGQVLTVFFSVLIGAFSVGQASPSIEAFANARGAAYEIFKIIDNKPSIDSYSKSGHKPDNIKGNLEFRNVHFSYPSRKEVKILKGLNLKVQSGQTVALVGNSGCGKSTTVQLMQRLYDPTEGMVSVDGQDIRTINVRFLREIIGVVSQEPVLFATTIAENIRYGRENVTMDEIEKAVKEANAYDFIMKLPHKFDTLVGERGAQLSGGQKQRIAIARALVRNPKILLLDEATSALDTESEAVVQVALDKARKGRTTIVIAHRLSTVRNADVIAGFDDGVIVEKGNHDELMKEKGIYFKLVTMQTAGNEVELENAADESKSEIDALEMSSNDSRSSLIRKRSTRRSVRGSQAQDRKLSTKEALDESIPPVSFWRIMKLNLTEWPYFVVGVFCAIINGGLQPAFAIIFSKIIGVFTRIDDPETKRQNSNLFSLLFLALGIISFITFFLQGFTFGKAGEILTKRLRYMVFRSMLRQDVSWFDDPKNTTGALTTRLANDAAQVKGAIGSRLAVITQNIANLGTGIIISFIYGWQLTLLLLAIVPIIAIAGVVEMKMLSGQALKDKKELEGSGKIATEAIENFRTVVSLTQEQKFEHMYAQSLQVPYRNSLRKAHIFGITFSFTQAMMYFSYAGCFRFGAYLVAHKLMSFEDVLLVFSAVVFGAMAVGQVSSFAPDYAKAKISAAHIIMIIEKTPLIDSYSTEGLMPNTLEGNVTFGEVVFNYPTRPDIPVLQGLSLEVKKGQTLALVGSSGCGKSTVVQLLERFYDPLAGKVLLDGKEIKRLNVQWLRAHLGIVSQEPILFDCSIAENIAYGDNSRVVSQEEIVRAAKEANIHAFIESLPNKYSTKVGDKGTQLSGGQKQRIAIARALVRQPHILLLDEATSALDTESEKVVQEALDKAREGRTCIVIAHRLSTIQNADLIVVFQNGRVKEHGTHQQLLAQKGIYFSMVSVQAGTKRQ
Description: as §1

[4] = Freeze-thaw stability of QC samples in DMEM (HPLC); assay type: physicochemical; settings: for Stability, Mean: freeze-thawed versus freshly prepared samples, peak areas; for Effect of freeze thawing on concentration in DMEM: freeze-thawed versus fresh DMEM samples
Source text: The separation from endogenous compounds was investigated by analyzing six different samples of DMEM. Short and long term stability was investigated by comparing the peak areas of six freshly prepared QC assay samples to those of the freeze-thawed samples, and it was expressed as a percentage.

P-gp = system: P-gp; set-up: method as in PMID 16846720; settings: Caco-2 cell lines; cited from earlier work
[5] = system: cellular efflux pumps (P-gp); set-up: method as in PMID 15847994, PMID 20513441; settings: cited from earlier work
SMDR2, a P-gp orthologue = system: SMDR2, a P-gp orthologue; set-up: method as in PMID 19726755; settings: cited from earlier work

O=C(C1CCCCC1)N1CC(=O)N2CCc3ccccc3C2C1 (centres unmarked) [PZQ, Praziquantel]
Cellular accumulation ratio (CAR), individual sample ([1]; CAR = (INT/EXT) × 10, samples 1-4): 0.03 and 0.05 and 0.04
Cellular accumulation ratio (CAR), mean ([1]; mean (± SD), n = 4): 0.04 ± 0.009 and 0.04
Cellular accumulation ratio (CAR), mean ([2]; CEMVBL cells, 10 μg/ml drug, 30 min, 37 °C, mean (± SD), n = 4): 0.05 ± 0.005 and 0.05
Cellular accumulation ratio (CAR), individual sample ([2]; CEMVBL cells, 10 μg/ml drug, 30 min, 37 °C, samples 1-4): 0.06 and 0.05
P-gp substrate specificity (conclusion) ([2]; comparison of accumulation in CEM and CEMVBL cells): not a substrate of P-gp; also recorded: neither a substrate nor an inhibitor of P-gp
CAR of SQV in presence of PZQ, mean ([3]; 10 μg/ml SQV + 10 μg/ml PZQ, mean (± SD), n = 4): 0.54 ± 0.061 and 0.54
CAR of SQV in presence of PZQ, individual sample ([3]; 10 μg/ml SQV + 10 μg/ml PZQ, samples 1-4): 0.45 and 0.57 and 0.59 and 0.53
P-gp inhibition (conclusion) (P-gp (CEMVBL cells); effect on SQV accumulation in CEMVBL cells compared to tariquidar): not an inhibitor of P-gp; also recorded: neither a substrate nor an inhibitor of P-gp
Stability, Mean ([4]; HQC 19.2 μM in DMEM): 109 (±3) %
Stability, Mean ([4]; LQC 6.4 μM in DMEM): 105 (±4) %
Stability, Mean ([4]; MQC 12.8 μM in DMEM): 113 (±6) %
Effect of freeze thawing on concentration in DMEM [4]: did not appear to significantly affect the concentrations
P-gp inhibitor / substrate status (P-gp): an inhibitor of P-gp without being a substrate
Interaction with cellular efflux pumps / P-gp substrate status [5]: did not show potential for interacting with cellular efflux pumps; also recorded: not a substrate
Permeability [5]: highly permeable substance
Inhibition of transport by SMDR2 (SMDR2, a P-gp orthologue): inhibit the transport by SMDR2

CC(C)(C)NC(=O)[C@@H]1C[C@@H]2CCCC[C@@H]2CN1C[C@@H](O)[C@H](Cc1ccccc1)NC(=O)[C@H](CC(N)=O)NC(=O)c1ccc2ccccc2n1 [SQV, Saquinavir]
CAR of SQV alone, mean (inhibition study) ([3]; 10 μg/ml SQV alone, mean (± SD), n = 4): 0.52 ± 0.068 and 0.52
CAR of SQV alone, individual sample (inhibition study) ([3]; 10 μg/ml SQV alone, samples 1-4): 0.57 and 0.50 and 0.59 and 0.44
CAR of SQV alone, mean (inhibition study) (P-gp (CEMVBL cells); CEMVBL cells, 10 μg/ml SQV alone, mean (± SD), n = 4): 0.09 ± 0.015 and 0.09
CAR of SQV alone, individual sample (inhibition study) (P-gp (CEMVBL cells); CEMVBL cells, 10 μg/ml SQV alone, samples 1-4): 0.07 and 0.10 and 0.11
Effect of freeze thawing on concentration in DMEM [4]: did not appear to significantly affect the concentrations

COc1cc2c(cc1OC)CN(CCc1ccc(NC(=O)c3cc(OC)c(OC)cc3NC(=O)c3cnc4ccccc4c3)cc1)CC2 [tariquidar]
CAR of SQV in presence of tariquidar (XR), mean ([3]; 10 μg/ml SQV + 1 μM tariquidar, mean (± SD), n = 4): 0.61 ± 0.102 and 0.61
CAR of SQV in presence of tariquidar (XR), individual sample ([3]; 10 μg/ml SQV + 1 μM tariquidar, samples 1-4, listed as XR): 0.55 and 0.51 and 0.73 and 0.66
